Test results taken from PMC12227661, “Shedding Light on the Phytochemical and Biological Fingerprints of Fibigia clypeata (L.) Medik Essential Oil as a Pharmacotherapeutic Agent” (Food Science & Nutrition, 2025).
Values after ≈ are worked out from the molar mass of the structure shown.

Legend:
[1] = ABTS cation radical decolorization activity; details: footnote a: given as IC50
Text: The procedure was followed from the literature (Miller et al. [1993]) and the measurements at 734 nm were read for each concentration relative to a blank absorbance (DMSO). BHA, BHT, and ‐TOC were used as standards. The obtained values were compared to the standards.

[2] = DPPH free radical scavenging activity assay
Protocol: The DPPH radical scavenging activity assay has been performed according to the method of Blois et al. with minor modifications (Blois [1958]). Butylated Hydroxy Toluene (BHT), Butylated Hydroxy Anisole (BHA), and α‐TOC (Tocopherol) were also assayed as standards for comparison.

[3] = CUPRAC cupric ion‐reducing antioxidant capacity; details: absorbance 450 nm after 30 min
Protocol: The antioxidant capacity assay to identify the reductive efficiencies of the essential oil for Cu metal was performed according to the method reported in the literature (Apak et al. [2005]). The absorbances were measured at 450 nm after 30 min. BHA, BHT, and α‐TOC were used as standards.

[4] = system: various bacterial strains; set-up: method as in Kyung and Fleming [1997]; details: ref Kyung and Fleming [1997]; cited from earlier work
four yeast strains = system: four yeast strains; set-up: method as in Kyung and Fleming [1997]; details: ref Kyung and Fleming [1997]; cited from earlier work
[5] = target: T1, Acetylcholinesterase (AChE) (Electrophorus electricus, UniProt O42275); set-up: method as in Ryan and Bryan [1988]; details: ref Ryan and Bryan [1988]; cited from earlier work
T1 construct: purchased Sigma C3389
T1 sequence (O42275 24-633): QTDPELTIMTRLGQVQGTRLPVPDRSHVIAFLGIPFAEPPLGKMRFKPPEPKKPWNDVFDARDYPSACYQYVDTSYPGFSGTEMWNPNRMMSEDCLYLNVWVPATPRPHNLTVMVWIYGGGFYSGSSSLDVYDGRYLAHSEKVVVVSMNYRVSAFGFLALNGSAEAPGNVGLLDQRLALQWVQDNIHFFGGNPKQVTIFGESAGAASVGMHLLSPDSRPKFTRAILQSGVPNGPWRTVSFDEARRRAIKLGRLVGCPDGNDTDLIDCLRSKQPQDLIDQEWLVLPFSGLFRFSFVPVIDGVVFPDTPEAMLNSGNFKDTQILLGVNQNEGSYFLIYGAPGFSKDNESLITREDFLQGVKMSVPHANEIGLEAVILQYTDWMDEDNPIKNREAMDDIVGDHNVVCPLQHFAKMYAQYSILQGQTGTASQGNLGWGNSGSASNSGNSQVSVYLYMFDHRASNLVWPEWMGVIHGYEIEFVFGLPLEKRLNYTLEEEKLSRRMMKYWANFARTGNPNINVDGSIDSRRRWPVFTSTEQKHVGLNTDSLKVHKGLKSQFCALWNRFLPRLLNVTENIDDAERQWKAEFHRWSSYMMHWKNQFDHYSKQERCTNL

Row | SMILES | A 0.5 values ABTS cation radical [1] [µg/mL] | IC50 values DPPH free radical [2] [µg/mL] | A 0.5 values CUPRAC [3] [µg/mL] | MIC [4] [ppm] | MIC (four yeast strains) [ppm] | AChE inhibition [5]
1 | COc1ccc(O)c(C(C)(C)C)c1 [BHA, Butylated Hydroxy Anisole] | 2.74 ± 0.03 | 3.22 ± 0.08 (≈ 17.9 µM) | 4.14 ± 0.17 |  |  | 
2 | Cc1cc(C(C)(C)C)c(O)c(C(C)(C)C)c1 [BHT, Butylated Hydroxy Toluene] | 4.44 ± 0.30 | 16.71 ± 0.80 (≈ 75.8 µM) | 3.93 ± 0.24 |  |  | 
3 | CSSSC [Compound 2, Dimethyl trisulfide] |  |  |  | 200 | 20 | 
4 | C=CC(C)(O)CCC=C(C)C (stereo not drawn) [Compound 6, Linalool] |  |  |  |  |  | no significant inhibition
5 | Cc1c(C)c2c(c(C)c1O)CC[C@@](C)(CCC[C@H](C)CCC[C@H](C)CCCC(C)C)O2 [α‐TOC, Tocopherol] | 8.48 ± 0.43 | 1.41 ± 0.04 (≈ 3.27 µM) | 13.64 ± 0.32 |  |  | 
